Holding throughout (assay type): biochemical
Experiment [1] concerns the target T1, CAMKIIα (Homo sapiens, UniProt Q9UQM7).
T1 construct: purchased SignalChem (Richmond, BC, Canada)
Put plainly: In vitro radiometric CAMK kinase assay. Conditions: up to 10 µM. How it is done: The PKC kinase assay was carried out by co-incubating 1 µCi [γ-^32P]ATP, 20 µM ATP, 50 ng of purified PKCα or PKCδ and 5 µg of myelin basic protein 4–14, 0.25 mg/mL bovine serum albumin, 0.1 mg/mL phosphatidylcholine/phosphatidylserine (80/20%) (1 µM), 1 µM phorbol dibutyrate in 50 µL of kinase buffer containing 50 mM Tris-HCl, pH 7.5, 4 mM MgCl2 and 10 mM β-mercaptoethanol. For the CAMK assay, 50 ng of CAMKIIα and 2 µg syntide-2 substrate in 50 µL kinase buffer were incubated with 0.1 mM MgCl2, 1 µCi of [γ-^32P] ATP, 70 µM ATP. 0.5 mM CaCl2 and 30 ng/µL calmodulin were preincubated for 15 min on ice and then added in the kinase reaction. The reactions were incubated at 30°C for 10 min and 25 µL of the reaction was spotted on Whatman P81 filter paper. The filter paper was washed 3 times in 0.5% phosphoric acid, air dried and counted using Beckman LS6500 multipurpose scintillation counter.

Experiment [2] deals with T2, PKD1 (Homo sapiens, UniProt Q15139).
T2 construct: GST; purchased Enzo Life sciences (Farmingdale, NY)
T2 sequence (Q15139 1-912): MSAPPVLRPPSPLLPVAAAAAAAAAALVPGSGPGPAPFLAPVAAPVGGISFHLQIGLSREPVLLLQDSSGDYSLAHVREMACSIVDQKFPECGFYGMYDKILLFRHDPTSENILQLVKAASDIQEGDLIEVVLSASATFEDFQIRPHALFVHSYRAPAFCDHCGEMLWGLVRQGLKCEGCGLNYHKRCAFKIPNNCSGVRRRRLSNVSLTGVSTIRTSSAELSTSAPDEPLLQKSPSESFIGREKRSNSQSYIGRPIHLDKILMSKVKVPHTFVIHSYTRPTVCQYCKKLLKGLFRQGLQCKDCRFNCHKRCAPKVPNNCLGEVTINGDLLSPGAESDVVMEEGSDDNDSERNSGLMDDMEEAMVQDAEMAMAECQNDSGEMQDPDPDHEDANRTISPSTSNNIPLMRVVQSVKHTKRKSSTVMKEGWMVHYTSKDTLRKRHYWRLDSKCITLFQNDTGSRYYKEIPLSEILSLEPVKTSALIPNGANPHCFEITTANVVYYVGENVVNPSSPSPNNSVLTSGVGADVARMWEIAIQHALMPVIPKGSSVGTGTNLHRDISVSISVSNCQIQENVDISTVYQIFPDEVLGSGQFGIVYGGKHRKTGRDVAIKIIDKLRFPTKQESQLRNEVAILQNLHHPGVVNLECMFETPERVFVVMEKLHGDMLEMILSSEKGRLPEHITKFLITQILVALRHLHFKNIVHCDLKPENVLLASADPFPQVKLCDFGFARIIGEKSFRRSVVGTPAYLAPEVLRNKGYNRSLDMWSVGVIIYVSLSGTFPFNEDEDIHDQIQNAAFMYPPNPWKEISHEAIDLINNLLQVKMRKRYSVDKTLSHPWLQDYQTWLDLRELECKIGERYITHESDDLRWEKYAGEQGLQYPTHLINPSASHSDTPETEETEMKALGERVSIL
Put plainly: In vitro radiometric PKD1 screening assay at 1 µM. How it is done:
Phosphorylation of HDAC5 was detected in a kinase reaction having 1 µCi [γ-^32P] […] The reaction was incubated at 30°C for 10 minutes and 25 µL of the reaction was spotted on Whatman P81 filter paper. The filter paper was washed 3 times in 0.5% phosphoric acid, air dried and counted using Beckman LS6500 multipurpose scintillation counter. Percent PKD1 inhibition was graphed using GraphPad Prism software 5.0.

In experiment [3] the target is T3, Recombinant human PKD2 (Homo sapiens, UniProt Q9BZL6).
T3 sequence (Q9BZL6 1-878): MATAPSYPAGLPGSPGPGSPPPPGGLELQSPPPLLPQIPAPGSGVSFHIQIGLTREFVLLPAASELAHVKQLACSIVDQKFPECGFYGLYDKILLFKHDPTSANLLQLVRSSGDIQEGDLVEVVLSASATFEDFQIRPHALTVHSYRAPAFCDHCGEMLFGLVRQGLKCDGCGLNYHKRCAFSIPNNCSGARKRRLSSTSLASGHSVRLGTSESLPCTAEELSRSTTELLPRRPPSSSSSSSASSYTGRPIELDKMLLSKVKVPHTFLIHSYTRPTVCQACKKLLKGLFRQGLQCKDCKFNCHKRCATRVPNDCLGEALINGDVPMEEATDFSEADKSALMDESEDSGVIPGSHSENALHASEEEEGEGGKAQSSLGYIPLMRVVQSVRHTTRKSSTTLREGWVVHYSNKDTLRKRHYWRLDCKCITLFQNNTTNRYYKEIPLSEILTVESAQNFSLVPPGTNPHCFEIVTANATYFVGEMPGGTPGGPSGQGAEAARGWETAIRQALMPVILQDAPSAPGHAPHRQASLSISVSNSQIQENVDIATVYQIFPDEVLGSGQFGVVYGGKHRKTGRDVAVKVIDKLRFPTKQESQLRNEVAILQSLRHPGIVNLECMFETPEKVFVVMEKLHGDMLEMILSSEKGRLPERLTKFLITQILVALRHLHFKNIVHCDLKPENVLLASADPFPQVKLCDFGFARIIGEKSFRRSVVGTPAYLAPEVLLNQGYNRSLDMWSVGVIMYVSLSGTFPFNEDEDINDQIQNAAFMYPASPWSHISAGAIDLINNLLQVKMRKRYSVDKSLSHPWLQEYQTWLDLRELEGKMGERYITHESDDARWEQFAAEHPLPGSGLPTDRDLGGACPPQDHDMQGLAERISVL
Put plainly: Radiometric PKD kinase assay, 10-point IC50.
Method: Recombinant human PKD1, 2, or 3 proteins were incubated in a mixture containing a peptide substrate derived from a PKD substrate, HDAC-5, and 10 different concentrations of the two compounds.
The IC50 values were calculated as the mean ±SEM of at least three independent experiments with triplicate determinations at each concentration of drug in each experiment. The data were plotted as a function of drug concentration and a representative graph is shown.

Entries after “also recorded” stand apart in the source; their conditions may differ. Where two headings read alike, the source gives them in different places.

For orientation: inhibition means how much of the control response was suppressed. As usually defined, the IC50 is the point on the concentration scale where inhibition reaches its midpoint.

`CC(C)(C)n1nc(-c2cccc3ccccc23)c2c(N)ncnc21` [Compound 1-NA-PP1, 1-(t-Butyl)-3-(naphthalen-1-yl)-1H-pyrazolo[3,4-d]pyrimidin-4-amine]: the “inhibition of CAMKIIα, in words” value in experiment [1] was “little activity; also recorded: did not significantly inhibit”. Moreover, the inhibition at 1 µM in experiment [2] (read-out: % PKD1 Inhibition) was found to be 77%; in experiment [2] (read-out: inhibition of PKD1 activity), 80%. Also, the IC50 amounted to 133 nM in experiment [3] (IC50 PKD2, mean ± SEM) and 133 nM in experiment [3] (PKD2 IC50, value printed in the figure, representative graph).

For `O=C(c1ccc(Nc2nccc(-c3cc4ccccc4s3)n2)cc1)N1CCC(N2CCCC2)CC1` [IKK-16, reference compound], the “inhibition of CAMKIIα, in words” value in experiment [1] was “almost completely abrogated its activity”. Moreover, the “% PKD1 Inhibition” value in experiment [2] (1 µM, targeted kinase inhibitor library screen, relative to DMSO) is reported as 67%. Also, the IC50 in experiment [3] (mean ± SEM, read-out: IC50 PKD2) was determined as 115 nM; in experiment [3] (value in the figure, representative graph, read-out: PKD2 IC50) it was 108 nM.
